Broadly, the IC50 is the concentration at which inhibition is half-maximal. Low values mean greater potency in that assay, high ones weaker potency in that assay.

The text below walks through data of EP1163363B1 (priority 1999, dated 2000).

Test [1] has as its target T1, Yersinia protein tyrosine phosphatase (YOP) (Yersinia enterocolitica, UniProt P15273).
T1 construct: purchased Upstate Biotechnology
The format is biochemical.

Another test addresses T2, Src kinase (Homo sapiens, UniProt P12931).
T2 construct: purchased Upstate Biotechnology
The test is described as follows: Solution phase FRET assay of Src kinase activity (rhodamine labelled SHPS-1 peptide / SHP2-GFP). The format is biochemical. Particulars: 10 µM staurosporine added to the reaction prior to Src enzyme; 3 units of Src kinase, 2 hours at 37°C. As for the experimental part:
SHPS-1 peptide labelled with rhodamine is phosphorylated using 3 units of Src kinase (Upstate Biotechnology) in a 40 µl reaction containing 100 µM peptide, 50 mM Tris-HCl pH7.2, 1 mM ATP, 10 mM MgCl2, 10 mM β-mercaptoethanol, 0.1 mg/ml BSA and 0.015%(v/v) Brij 35, over a period of 2 hours at 37°C. Non-phosphorylated control samples are prepared under identical conditions in the absence of the kinase.
SHP2-GFP is diluted to 0.5 µM in assay buffer (50 mM Tris-HCl pH7.2, 10 mM β-mercaptoethanol, 0.5mg/ml BSA, 0.015% Brij 35). 98 µl of this solution is used per assay. Initial readings of the fluorescence of the SHP2-GFP construct are made using 485nm excitation wavelength and 520nm emission wavelength. Rhodamine labelled peptide (2µl of above phosphorylation reactions) is added to the SHP2-GFP solution and formation of FRET followed in real-time by measuring the decrease in fluorescence emission of SHP2-GFP at 520 nm as shown in Figure 13.
Phosphonlation of the peptide is prevented by inhibiting the enzyme, Src, with the potent kinase inhibitor staurosporine. Phosphorylation of the rhodamine labelled SHPS-1 peptide is performed as described above in the presence and absence of 10 µM staurosporine added to the reaction prior to Src enzyme.

T2 sequence (P12931 whole entry): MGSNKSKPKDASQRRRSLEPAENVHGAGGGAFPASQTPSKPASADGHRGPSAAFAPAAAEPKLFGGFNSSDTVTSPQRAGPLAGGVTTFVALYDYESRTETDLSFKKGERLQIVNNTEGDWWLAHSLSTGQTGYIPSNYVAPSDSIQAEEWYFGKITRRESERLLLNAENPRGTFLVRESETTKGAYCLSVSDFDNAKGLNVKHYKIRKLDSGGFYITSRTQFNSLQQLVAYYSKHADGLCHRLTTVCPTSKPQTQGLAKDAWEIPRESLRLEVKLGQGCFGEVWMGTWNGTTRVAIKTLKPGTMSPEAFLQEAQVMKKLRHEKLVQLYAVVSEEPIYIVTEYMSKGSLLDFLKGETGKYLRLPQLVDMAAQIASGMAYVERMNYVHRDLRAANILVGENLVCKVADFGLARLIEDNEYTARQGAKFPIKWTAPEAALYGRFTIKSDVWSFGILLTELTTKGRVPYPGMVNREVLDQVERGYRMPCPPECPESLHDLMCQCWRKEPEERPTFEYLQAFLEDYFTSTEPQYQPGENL
T1 sequence (P15273 whole entry): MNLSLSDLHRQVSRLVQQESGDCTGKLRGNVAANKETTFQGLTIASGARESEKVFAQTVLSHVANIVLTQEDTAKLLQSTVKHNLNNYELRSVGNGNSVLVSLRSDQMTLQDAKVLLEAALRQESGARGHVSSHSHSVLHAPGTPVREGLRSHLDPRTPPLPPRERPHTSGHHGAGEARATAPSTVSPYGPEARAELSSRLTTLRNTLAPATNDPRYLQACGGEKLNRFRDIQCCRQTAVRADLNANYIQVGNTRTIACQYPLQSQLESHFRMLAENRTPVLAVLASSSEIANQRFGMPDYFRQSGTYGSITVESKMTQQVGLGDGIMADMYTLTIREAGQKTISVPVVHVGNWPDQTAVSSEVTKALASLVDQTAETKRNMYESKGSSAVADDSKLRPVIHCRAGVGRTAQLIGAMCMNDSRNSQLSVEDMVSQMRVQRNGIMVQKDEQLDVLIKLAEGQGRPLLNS

In test [1], `[Na+].[Na+].[Na+].[O]=[V]([O-])([O-])[O-]` [sodium orthovanadate, Sodium orthovanadate] had an IC50 of 0.25 µM.

As to `CN[C@@H]1C[C@H]2O[C@@](C)([C@@H]1OC)n1c3ccccc3c3c4c(c5c6ccccc6n2c5c31)C(=O)NC4` [staurosporine], the “Inhibition of Src phosphorylation of SHPS-1 peptide (formation of FRET partnership with SHP2-GFP)” value on Src kinase is given as “fail to form a FRET partnership”.
